PubChem BioAssay AID2060894 (Molecular Pharmacology Branch, DTP, NCI, 2025)
Each block holds one molecule with its values, some of them ahead of it.

Test system: K12877-001-R-J1-PDC complex spheroid viability
Experiment: Anticancer human tumor K12877-001-R-J1-PDC patient-derived lung adenocarcinoma cell line growth inhibition [RAS]
Details: for IC50: curve of first compound; for viability, T/C: stronger effect = lower value
Method in brief: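 Multi-cell-type spheroids: tumor cells plus HUVEC endothelial cells and mesenchymal stem cells. RAS-pathway inhibitors were combined with targeted agents, each dosed in half-log steps down from clinical Cmax, or from 10 microM when Cmax was unknown.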

[1] = second compound 0.0316 µM, first compound 0.00316 µM
[2] = second compound 0.0316 µM, first compound 0.01 µM
[3] = second compound 0.0316 µM, first compound 0.0316 µM
[4] = second compound 0.0316 µM, first compound 0.1 µM
[5] = second compound 0.0316 µM, first compound 0.316 µM
[6] = second compound 0.0316 µM, first compound 1 µM
[7] = second compound 0.1 µM, first compound 0.00316 µM
[8] = second compound 0.1 µM, first compound 0.01 µM
[9] = second compound 0.1 µM, first compound 0.0316 µM
[10] = second compound 0.1 µM, first compound 0.1 µM
[11] = second compound 0.1 µM, first compound 0.316 µM
[12] = second compound 0.1 µM, first compound 1 µM
[13] = second compound 0.316 µM, first compound 0.00316 µM
[14] = second compound 0.316 µM, first compound 0.01 µM
[15] = second compound 0.316 µM, first compound 0.0316 µM
[16] = second compound 0.316 µM, first compound 0.1 µM
[17] = second compound 0.316 µM, first compound 0.316 µM
[18] = second compound 0.316 µM, first compound 1 µM
[19] = second compound 1 µM, first compound 0.00316 µM
[20] = second compound 1 µM, first compound 0.01 µM
[21] = second compound 1 µM, first compound 0.0316 µM
[22] = second compound 1 µM, first compound 0.1 µM
[23] = second compound 1 µM, first compound 0.316 µM
[24] = second compound 1 µM, first compound 1 µM
[25] = second compound 3.16 µM, first compound 0.00316 µM
[26] = second compound 3.16 µM, first compound 0.01 µM
[27] = second compound 3.16 µM, first compound 0.0316 µM
[28] = second compound 3.16 µM, first compound 0.1 µM
[29] = second compound 3.16 µM, first compound 0.316 µM
[30] = second compound 3.16 µM, first compound 1 µM
[31] = second compound 10 µM, first compound 0.00316 µM
[32] = second compound 10 µM, first compound 0.01 µM
[33] = second compound 10 µM, first compound 0.0316 µM
[34] = second compound 10 µM, first compound 0.1 µM
[35] = second compound 10 µM, first compound 0.316 µM
[36] = second compound 10 µM, first compound 1 µM
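Note: spheroids exposed to agents for one week before readout.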
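Throughout, for viability, T/C: tumour cells co-cultured with HUVEC and mesenchymal stem cells in spheroids.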

IC50 (second compound 0.0316 µM): > 1000 nM
IC50 (second compound 0.1 µM): > 1000 nM
IC50 (second compound 0.316 µM): > 1000 nM
IC50 (second compound 1 µM): > 1000 nM
IC50 (second compound 3.16 µM): > 1000 nM
IC50 (second compound 10 µM): > 1000 nM
SMILES: C=CC(=O)N1CCN(c2nc(OCC3CCCN3C)nc3c(F)c(-c4nc(N)cc(C)c4C(F)(F)F)c(Cl)cc23)C(C)C1 (stereo unspecified) + C#Cc1c(F)ccc2cc(O)cc(-c3ncc4c(N5CC6CCC(C5)N6)nc(OCC56CCCN5CC(F)C6)nc4c3F)c12
viability, T/C [1]: 97.7%
viability, T/C [2]: 87.3%
viability, T/C [3]: 90.9%
viability, T/C [4]: 79.4%
viability, T/C [5]: 85.3%
viability, T/C [6]: 72.8%
viability, T/C [7]: 99.2%
viability, T/C [8]: 84.5%
viability, T/C [9]: 83.7%
viability, T/C [10]: 78.3%
viability, T/C [11]: 83.8%
viability, T/C [12]: 75.5%
viability, T/C [13]: 95.8%
viability, T/C [14]: 86.2%
viability, T/C [15]: 83.4%
viability, T/C [16]: 89.7%
viability, T/C [17]: 75%
viability, T/C [18]: 81.9%
viability, T/C [19]: 101%
viability, T/C [20]: 85.3%
viability, T/C [21]: 77.5%
viability, T/C [22]: 89.8%
viability, T/C [23]: 78.2%
viability, T/C [24]: 77.8%
viability, T/C [25]: 106%
viability, T/C [26]: 92.2%
viability, T/C [27]: 80.7%
viability, T/C [28]: 83.1%
viability, T/C [29]: 85%
viability, T/C [30]: 73.9%
viability, T/C [31]: 94.4%
viability, T/C [32]: 87.3%
viability, T/C [33]: 79.1%
viability, T/C [34]: 79.8%
viability, T/C [35]: 78.2%
viability, T/C [36]: 83.2%

IC50 (second compound 0.0316 µM): > 1000 nM
IC50 (second compound 0.1 µM): > 1000 nM
IC50 (second compound 0.316 µM): > 1000 nM
IC50 (second compound 1 µM): > 1000 nM
IC50 (second compound 3.16 µM): > 1000 nM
IC50 (second compound 10 µM): > 1000 nM
SMILES: CCN1CCN(Cc2ccc(Nc3ncc(F)c(-c4cc(F)c5nc(C)n(C(C)C)c5c4)n3)nc2)CC1 + C#Cc1c(F)ccc2cc(O)cc(-c3ncc4c(N5CC6CCC(C5)N6)nc(OCC56CCCN5CC(F)C6)nc4c3F)c12
viability, T/C [1]: 106%
viability, T/C [2]: 101%
viability, T/C [3]: 106%
viability, T/C [4]: 85.6%
viability, T/C [5]: 118%
viability, T/C [6]: 97.2%
viability, T/C [7]: 97.9%
viability, T/C [8]: 102%
viability, T/C [9]: 113%
viability, T/C [10]: 97.8%
viability, T/C [11]: 118%
viability, T/C [12]: 88.4%
viability, T/C [13]: 115%
viability, T/C [14]: 107%
viability, T/C [15]: 98.6%
viability, T/C [16]: 99.2%
viability, T/C [17]: 109%
viability, T/C [18]: 108%
viability, T/C [19]: 109%
viability, T/C [20]: 113%
viability, T/C [21]: 96.7%
viability, T/C [22]: 104%
viability, T/C [23]: 108%
viability, T/C [24]: 82.2%
viability, T/C [25]: 108%
viability, T/C [26]: 105%
viability, T/C [27]: 97%
viability, T/C [28]: 94.1%
viability, T/C [29]: 76.1%
viability, T/C [30]: 83.9%
viability, T/C [31]: 105%
viability, T/C [32]: 84.8%
viability, T/C [33]: 90.4%
viability, T/C [34]: 92.3%
viability, T/C [35]: 87.2%
viability, T/C [36]: 56.7%

IC50 (second compound 0.000949 µM): 28.4 nM
IC50 (second compound 0.003 µM): 23.4 nM
IC50 (second compound 0.00949 µM): 17.7 nM
IC50 (second compound 0.03 µM): 13.9 nM
IC50 (second compound 0.0949 µM): 9.11 nM
IC50 (second compound 0.3 µM): 6.13 nM
SMILES: CC(C)n1nc(-c2ccc3oc(N)nc3c2)c2c(N)ncnc21 + CCn1c(-c2cc(N3CCN(C)CC3)cnc2C(C)OC)c2c3cc(ccc31)-c1csc(n1)CC(NC(=O)C1CC1C)C(=O)N1CCCC(N1)C(=O)OCC(C)(C)C2
viability, T/C (second compound 0.000949 µM, first compound 0.000316 µM): 73.8%
viability, T/C (second compound 0.000949 µM, first compound 0.001 µM): 74.5%
viability, T/C (second compound 0.000949 µM, first compound 0.00316 µM): 95.7%
viability, T/C (second compound 0.000949 µM, first compound 0.01 µM): 104%
viability, T/C (second compound 0.000949 µM, first compound 0.0316 µM): 46.1%
viability, T/C (second compound 0.000949 µM, first compound 0.1 µM): 24.8%
viability, T/C (second compound 0.003 µM, first compound 0.000316 µM): 71.2%
viability, T/C (second compound 0.003 µM, first compound 0.001 µM): 74%
viability, T/C (second compound 0.003 µM, first compound 0.00316 µM): 69.9%
viability, T/C (second compound 0.003 µM, first compound 0.01 µM): 90.8%
viability, T/C (second compound 0.003 µM, first compound 0.0316 µM): 40.6%
viability, T/C (second compound 0.003 µM, first compound 0.1 µM): 22.1%
viability, T/C (second compound 0.00949 µM, first compound 0.000316 µM): 64.1%
viability, T/C (second compound 0.00949 µM, first compound 0.001 µM): 65.4%
viability, T/C (second compound 0.00949 µM, first compound 0.00316 µM): 76.6%
viability, T/C (second compound 0.00949 µM, first compound 0.01 µM): 75.4%
viability, T/C (second compound 0.00949 µM, first compound 0.0316 µM): 29.3%
viability, T/C (second compound 0.00949 µM, first compound 0.1 µM): 17.3%
viability, T/C (second compound 0.03 µM, first compound 0.000316 µM): 77.1%
viability, T/C (second compound 0.03 µM, first compound 0.001 µM): 92.2%
viability, T/C (second compound 0.03 µM, first compound 0.00316 µM): 110%
viability, T/C (second compound 0.03 µM, first compound 0.01 µM): 61.1%
viability, T/C (second compound 0.03 µM, first compound 0.0316 µM): 28%
viability, T/C (second compound 0.03 µM, first compound 0.1 µM): 16.2%
viability, T/C (second compound 0.0949 µM, first compound 0.000316 µM): 103%
viability, T/C (second compound 0.0949 µM, first compound 0.001 µM): 102%
viability, T/C (second compound 0.0949 µM, first compound 0.00316 µM): 76.5%
viability, T/C (second compound 0.0949 µM, first compound 0.01 µM): 49.1%
viability, T/C (second compound 0.0949 µM, first compound 0.0316 µM): 22.3%
viability, T/C (second compound 0.0949 µM, first compound 0.1 µM): 13.6%
viability, T/C (second compound 0.3 µM, first compound 0.000316 µM): 79.1%
viability, T/C (second compound 0.3 µM, first compound 0.001 µM): 92.5%
viability, T/C (second compound 0.3 µM, first compound 0.00316 µM): 60.3%
viability, T/C (second compound 0.3 µM, first compound 0.01 µM): 40.3%
viability, T/C (second compound 0.3 µM, first compound 0.0316 µM): 19.3%
viability, T/C (second compound 0.3 µM, first compound 0.1 µM): 11.7%
